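Interpolation was linear, between the two tested concentrations surrounding the appropriate level; five concentrations were tested over 48 hours in 96-well plates. Abbreviation: GI50, concentration required for 50% inhibition of growth.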 The source made the active and inactive calls. No stated cut-off is given here; in the data, active = GI50 up to about 1.1 µM and inactive = higher.
Legend:
Assay in all cases: NCI tumour cell line growth inhibition, 48 h
[1] = test system: HOP-62
[2] = test system: RXF 393
[3] = test system: TK-10
[4] = test system: SF-539
[5] = test system: M14
[6] = test system: NCI-H460
[7] = test system: ACHN
[8] = test system: SK-OV-3
[9] = test system: EKVX
[10] = test system: MOLT-4
[11] = test system: SK-MEL-28
[12] = test system: HCT-116
[13] = test system: IGROV-1
[14] = test system: HT-29
[15] = test system: NCI-H522
[16] = test system: Malme-3M
[17] = test system: UO-31
[18] = test system: K562
[19] = test system: OVCAR-5

Measured: GI50

COc1ccc2c(c1O)C(=O)C(CCC(=O)O)CC2 (configuration not stated)
inactive: [1] > 100 µM | [2] > 100 µM | [3] > 100 µM | [4] > 100 µM | [5] > 100 µM | [6] > 100 µM | [7] > 100 µM | [8] > 100 µM | [9] > 100 µM | [10] > 100 µM | [11] > 100 µM | [12] > 100 µM | [13] > 100 µM | [14] > 100 µM

COc1ccc(OC)c(CC(C)N)c1 (configuration not stated)
inactive: [1] > 100 µM | [2] > 100 µM | [3] > 100 µM | [15] > 100 µM | [4] > 100 µM | [5] > 100 µM | [6] > 100 µM | [7] > 100 µM | [8] > 100 µM | [16] > 100 µM | [9] > 100 µM | [17] > 100 µM | [18] > 100 µM | [10] > 100 µM | [11] > 100 µM | [12] > 100 µM | [13] > 100 µM | [14] > 100 µM

NC(=O)c1ncn2c1NCC1OC2C(O)C1O (configuration not stated)
inactive: [19] > 100 µM | [1] > 100 µM | [2] > 100 µM | [3] > 100 µM | [15] > 100 µM | [4] > 100 µM | [5] > 100 µM | [7] > 100 µM | [8] > 100 µM | [16] > 100 µM | [9] > 100 µM | [17] > 100 µM | [18] > 100 µM | [10] > 100 µM | [11] > 100 µM | [12] > 100 µM | [13] > 100 µM | [14] > 100 µM

NC(=O)CCCC(NCc1c2ccccc2nc2ccccc12)C(=O)O (configuration not stated)
inactive: [19] > 100 µM | [1] > 100 µM | [2] 51.8 µM | [3] 55 µM | [15] 22.6 µM | [4] 32.7 µM | [5] 42.4 µM | [6] 39.5 µM | [7] 49.8 µM | [8] > 100 µM | [16] 77.1 µM | [9] 56.6 µM | [18] 26.6 µM | [10] 17.9 µM | [11] > 100 µM | [12] > 10 µM | [13] 48.5 µM | [14] 36.2 µM

Nc1c(-c2nc3ccccc3[nH]2)sc(=S)n1-c1ccc(Cl)cc1
inactive: [19] > 100 µM | [1] 25.6 µM | [2] 23.8 µM | [3] 30 µM | [15] 22.4 µM | [4] 20.1 µM | [5] 30.3 µM | [7] 17.7 µM | [8] 34.3 µM | [16] 36.2 µM | [9] 35.8 µM | [17] 29.6 µM | [18] 32.8 µM | [10] 31.1 µM | [11] 33.7 µM | [13] 28.6 µM | [14] 19.7 µM

C[C@@H](N[C@H]1CCC[C@@H]1O)c1ccccc1.C[C@@H](N[C@H]1CCC[C@H]1O)c1ccccc1
inactive: [1] 51.9 µM | [2] > 100 µM | [3] 90.4 µM | [15] > 100 µM | [4] > 100 µM | [5] 49 µM | [6] 37.8 µM | [7] > 100 µM | [8] > 100 µM | [16] > 100 µM | [9] > 100 µM | [17] 50.5 µM | [18] 44.9 µM | [10] 51.5 µM | [11] 58.3 µM | [12] 34.9 µM | [13] > 100 µM | [14] 38.1 µM

C=CCOCn1cc(F)c(=O)[nH]c1=O
inactive: [1] > 100 µM | [3] > 100 µM | [15] > 100 µM | [4] > 100 µM | [5] > 100 µM | [6] > 100 µM | [7] > 100 µM | [8] > 100 µM | [16] > 100 µM | [9] > 100 µM | [17] > 100 µM | [18] > 100 µM | [10] > 100 µM | [11] > 100 µM | [12] > 100 µM | [13] > 100 µM | [14] > 100 µM

CC(=O)OCC1=C(C(=O)O)C(c2ccc3c(c2)OCO3)c2cc3c(cc2O1)OCO3 (configuration not stated)
inactive: [1] > 100 µM | [2] > 100 µM | [3] > 100 µM | [4] > 100 µM | [5] > 100 µM | [6] > 100 µM | [7] > 100 µM | [8] > 100 µM | [16] > 100 µM | [9] > 100 µM | [17] > 100 µM | [18] > 100 µM | [10] > 100 µM | [11] > 100 µM | [12] > 100 µM | [13] > 100 µM | [14] > 100 µM

NNC(=S)N/N=C(\CCCC(=O)NCCc1ccccc1)CC(=O)c1ccccc1
inactive: [19] > 100 µM | [1] > 100 µM | [2] > 100 µM | [3] > 100 µM | [15] > 100 µM | [4] > 100 µM | [5] > 100 µM | [6] > 100 µM | [7] > 100 µM | [16] > 100 µM | [9] > 100 µM | [17] > 100 µM | [11] > 100 µM | [12] > 100 µM | [13] > 100 µM | [14] > 100 µM

Cc1cc(N(CCC#N)CCC#N)ccc1/C=C/C(=O)Nc1ccccc1Cl
inactive: [19] > 100 µM | [1] > 100 µM | [3] > 100 µM | [15] > 100 µM | [4] > 100 µM | [5] > 100 µM | [6] > 100 µM | [7] > 100 µM | [8] > 100 µM | [16] > 100 µM | [9] > 100 µM | [17] > 100 µM | [18] > 100 µM | [10] > 100 µM | [11] > 100 µM | [12] > 100 µM | [13] > 100 µM | [14] > 100 µM

CCCc1ccc(NCc2cc(OC)c(OC)c(OC)c2)cc1
inactive: [19] 26.6 µM | [1] 34.1 µM | [2] 32.3 µM | [3] 59.8 µM | [4] 28.3 µM | [6] 55 µM | [7] 30.6 µM | [8] 22.3 µM | [16] 19.4 µM | [9] 61 µM | [17] 24.7 µM | [18] 12.1 µM | [10] 18.2 µM | [11] 25.1 µM | [12] 24.7 µM | [13] 24.4 µM | [14] 23.6 µM

CCNC(=O)CCN(C(=O)O)S(=O)(=O)c1ccc(NC(=O)c2ccccc2)cc1
inactive: [19] > 100 µM | [1] > 100 µM | [3] > 100 µM | [15] > 100 µM | [4] > 100 µM | [5] > 100 µM | [6] > 100 µM | [7] > 100 µM | [8] > 100 µM | [16] > 100 µM | [9] > 100 µM | [17] > 100 µM | [18] 86.3 µM | [10] > 100 µM | [11] > 100 µM | [12] 35.6 µM | [13] > 100 µM | [14] 50.8 µM

COc1ccc2oc(-c3ccncc3)cc(=O)c2c1
inactive: [19] > 100 µM | [1] > 100 µM | [2] > 100 µM | [5] > 100 µM | [6] > 100 µM | [7] > 100 µM | [16] 39.8 µM | [17] > 100 µM | [18] > 100 µM | [10] 25.2 µM | [11] > 100 µM | [12] > 100 µM | [13] 82 µM | [14] > 100 µM

O=C1CC2(CCC3=C(O2)c2ccccc2NC(=O)C3)C(=O)c2ccccc2N1 (configuration not stated)
inactive: [19] > 100 µM | [1] > 100 µM | [2] > 100 µM | [3] > 100 µM | [15] > 100 µM | [4] > 100 µM | [5] > 100 µM | [6] > 100 µM | [7] > 100 µM | [16] > 100 µM | [9] > 100 µM | [17] 41.9 µM | [18] 48.1 µM | [10] > 100 µM | [11] > 100 µM | [12] > 100 µM | [13] > 100 µM | [14] > 100 µM

COc1nc2ccc(COc3ccc(C(=O)NC(CCC(=O)O)C(=O)O)cc3)cc2nc1OC (configuration not stated)
inactive: [19] > 10 µM | [1] > 10 µM | [2] > 10 µM | [3] > 10 µM | [15] > 10 µM | [4] > 10 µM | [5] > 10 µM | [6] > 10 µM | [7] > 10 µM | [8] > 10 µM | [9] > 10 µM | [17] > 10 µM | [18] > 10 µM | [10] > 10 µM | [11] > 10 µM | [13] > 10 µM | [14] > 10 µM

O=C(O)CN1CCSc2ccccc2CN(CC(=O)O)CCSc2ccccc2C1
inactive: [19] > 100 µM | [1] > 100 µM | [3] > 100 µM | [15] > 100 µM | [4] > 100 µM | [5] > 100 µM | [6] > 100 µM | [7] > 100 µM | [8] > 100 µM | [16] > 100 µM | [9] > 100 µM | [17] > 100 µM | [18] > 100 µM | [11] > 100 µM | [12] > 100 µM | [13] > 100 µM | [14] > 100 µM

From ChEMBL document CHEMBL1201862, “PubChem BioAssay data set” (2004)
